Results from patent US5349127A, “Expression of herbicide metabolizing cytochromes P450” (priority 1992, dated 1994).

What was measured:
[1] = system: S. lividans transformed with pCAO400; experiment: Sulfonylurea metabolism by washed cell suspension (Example 5); format: in vitro ADME, Streptomyces lividans; settings: substrate 10004 about 100 μg/ml
Method: (§1) Herbicides and their metabolites are measured by HPLC as described by Romesser et al., BBRC 140: 650-659 (1986), herein incorporated by reference, except that 0.1% H3 PO4 is used in both solvents. Chromatographic identity and quantitation of the herbicides and their resulting metabolites is determined by comparing them chromatographically with authentic standard compounds. Identity of the resulting metabolites is also confirmed by UV spectroscopy.
(§2) A 100 ml culture of S. griseolus ATCC 11796 in sporulation broth and a 50 ml culture of S. lividans transformed with pCAO400 in YEME broth were prepared and incubated for 24 hours as described. At that time, the S. griseolus culture was split into two 50 ml aliquots into two separate flasks and 25 ml of fresh sporulation broth was added to each and 9 mg of […] was added to one of these cultures to induce cytochrome P450SU1 expression. Fresh YEME broth (25 ml) was added to the S. lividans culture. After an additional 6 hours growth at 30° C., the cells in each culture were harvested as described above, washed twice with MOPS (50 mM, pH 7.2) and recentrifuged. The cell pellets were resuspended in four cell volumes of MOPS (50 mM, pH 7.2) containing 0.2% glucose and about 100 μg/ml of 10004. These cell suspensions were incubated at 30° C. with shaking and aliqouts were taken at 2 and 5.5 hours. The supernatant of each aliquot was analyzed by HPLC and the concentrations of the sulfonylurea compound 10004 and its metabolite 10005 were determined.

[2] = system: S. lividans pCAO200SU1-FeS-B#9; experiment: Sulfonylurea metabolism by washed cell suspension (Examples 6-9); format: in vitro ADME, Streptomyces lividans; settings: substrate 10004
Method: as §1, §2
S. lividans transformed respectively with pCAO200SU1-FeS-B#9, pCAO200SU#112and pCAO200 were cultured for 36 hours in 400 ml of YEME broth at 30° C. S. griseolus ATCC 11796 was similarly cultured in 400 ml of sporulation broth. Six hours before harvesting the cells, 150 ml of fresh YEME broth was added to the S. lividans cells, and the S. griseolus cells were split into two 200 ml cultures with 100 ml of fresh sporulation broth added to each. 10001 (36 mg) was added to one of the two S. griseolus cultures to induce cytochrome P450SU1. […]

[3] = system: S. lividans pCAO200SU1#12; experiment: as above; format: in vitro ADME, Streptomyces lividans; settings: substrate 10004
S. lividans pCAO200 = experiment: as above; format: in vitro ADME, Streptomyces lividans; settings: substrate 10004
S. lividans C37 = experiment: Percent conversion of herbicides by cultures (Example 16); format: in vitro ADME, Streptomyces lividans; settings: 3.0 mg herbicide in 25 ml broth; 24 hours
Method: (§3) Separate cultures (50 ml) inoculated with S. lividans C37, S. lividans transformed with pCAO200SU1-FeS-B#9, S. griseolus ATCC11796, S. griseolus PH2003 transformed with pIJ425, or S. ariseolus PH2003 transformed with pCS325 were cultured in sporulation broth for 18 hours at 30° C. with shaking. Each culture was then resuspended in 25 ml fresh sporulation broth and 3.0 mg herbicide added. In the case of cultures of S. griseolus ATCC11796, a second culture containing herbicide and 3.0 mg 10001 was also prepared. Each culture was reincubated for 24 hours, then an aliquot of the medium was withdrawn and analyzed by HPLC. The percent conversion of herbicide was determined.

[4] = system: S. lividans pCAO200SU1-FeS-B#9; experiment: as above; format: in vitro ADME, Streptomyces lividans; settings: for Percent Conversion: 3.0 mg herbicide in 25 ml broth, 24 hours; for metabolism by bacteria containing constitutively expressed P450SU1: summary of Table 13
Method: as §3

[5] = system: S. griseolus ATCC 11796, 10001 added; experiment: as above; format: in vitro ADME, Streptomyces griseolus; settings: 3.0 mg herbicide and 3.0 mg 10001 in 25 ml broth; 24 hours
Method: as §3

S. griseolus ATCC 11796 = experiment: as above; format: in vitro ADME, Streptomyces griseolus; settings: 3.0 mg herbicide in 25 ml broth; 24 hours
Method: as §3

[6] = system: S. griseolus PH2003 pCS325; experiment: as above; format: in vitro ADME, Streptomyces griseolus; settings: for Percent Conversion: 3.0 mg herbicide in 25 ml broth, 24 hours; for metabolism by bacteria containing constitutively expressed P450SU2: summary of Table 13
Method: as §3

[7] = system: S. griseolus PH2003 pIJ425; experiment: as above; format: in vitro ADME, Streptomyces griseolus; settings: 3.0 mg herbicide in 25 ml broth; 24 hours
Method: as §3

S. griseolus ATCC11796 = experiment: Metabolism of 10015 analogs to 10014 (Example 17); format: in vitro ADME, Streptomyces griseolus
Method: Cultures of S. griseolus ATCC11796 were cultivated in sporulation-broth (50ml) at 30° C. with shaking for 17 hours. Each culture was then resuspended in 25 ml fresh sporulation broth, 3.0 mg sulfonylurea was added, and the culture reincubated for 4 days. Aliquots of the medium were then analyzed by HPLC. Formation of 10014 was measured based on similarity of retention time and UV spectrum of the test metabolite to that formed by metabolism of 10015.

[8] = biological target: T1, purified cytochrome p450SU1 (Streptomyces griseolus, UniProt P18326); experiment: Rate of metabolism of 10015 to 10014 supported by FeS proteins (Example 27); format: biochemical; settings: 0.2 mM 10015, 15 min
T1 construct: Purified, native cytochromes P450SU1 and P450SU2; endogenous in cells; host or cells: sulfonylurea-induced Streptomyces griseolus cells
T1 sequence (P18326 whole entry, looked up): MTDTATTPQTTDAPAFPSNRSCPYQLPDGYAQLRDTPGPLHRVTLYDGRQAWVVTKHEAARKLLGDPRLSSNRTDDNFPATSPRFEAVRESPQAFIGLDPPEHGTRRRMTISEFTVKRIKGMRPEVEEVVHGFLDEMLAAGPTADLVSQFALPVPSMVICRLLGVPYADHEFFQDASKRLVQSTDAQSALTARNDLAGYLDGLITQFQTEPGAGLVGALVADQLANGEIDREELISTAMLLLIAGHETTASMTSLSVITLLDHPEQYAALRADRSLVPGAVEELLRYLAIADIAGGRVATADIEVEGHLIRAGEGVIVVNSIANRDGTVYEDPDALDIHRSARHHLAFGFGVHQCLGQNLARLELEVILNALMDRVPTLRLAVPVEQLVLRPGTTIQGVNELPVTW
Method: The purpose of this example was to define the combination of cytochrome p450SU1 and other proteins which results in optimal metabolism of sulfonylureas, based on conclusions from in vitro experiments. In these experiments, the rate of metabolism of 10015 to 10014, mediated by purified cytochrome p450SU1, was tested to find which FeS protein functions as the best direct electron donor.
The reaction was initiated by-the addition of NADPH to a final concentration of 0.03 mM. After 15 min the reaction was terminated by the addition of 0.25 ml H2 O:acetonitrile:H3 PO4^- (80:19:1). After filtering this mixture through a 0.2 μm filter, the amount of metabolite (10014) formed was analyzed by HPLC.

`CCCCN1Cc2cccc(S(=O)(=O)NC(=O)Nc3nc(OC)cc(OC)n3)c2S1(=O)=O` [compound 10004] gave a concentration in supernatant ([1]; 2 h) of 72 µM, a concentration in supernatant ([1]; 5.5 h) of 0 µM and a concentration in supernatant ([2]; 2 h) of 2 µM. It also gave a concentration in supernatant ([2]; 4 h) of 1 µM, a concentration in supernatant ([2]; 6 h) of 2 µM and a concentration in supernatant ([3]; 2 h) of 81 µM. For the same molecule, the concentration in supernatant ([3]; 4 h) was 29 µM, the concentration in supernatant ([3]; 6 h) was 0 µM and the concentration in supernatant (S. lividans pCAO200; 2 h) was 97 µM. For the same molecule, the concentration in supernatant (S. lividans pCAO200; 4 h) was 92 µM and the concentration in supernatant (S. lividans pCAO200; 6 h) was 85 µM.

`COc1cc(OC)nc(NC(=O)NS(=O)(=O)c2cccc3c2S(=O)(=O)N(CCC(C)O)C3)n1` (stereo not drawn) [compound 10005, 2-(3-hydroxybutyl)-2,3-dihydro-N-[(4,6-dimethoxypyrimidin-2-yl)aminocarbonyl]1,2-benzisothiazole-7-sulfonamide-1,1-dioxide] gave a concentration in supernatant ([1]; 2 h) of 67 µM, a concentration in supernatant ([1]; 5.5 h) of 125 µM and a concentration in supernatant ([2]; 2 h) of 35 µM. For the same molecule, the concentration in supernatant ([2]; 4 h) was 100 µM, the concentration in supernatant ([2]; 6 h) was 100 µM and the concentration in supernatant ([3]; 2 h) was 43 µM. For the same molecule, the concentration in supernatant ([3]; 4 h) was 84 µM, the concentration in supernatant ([3]; 6 h) was 109 µM and the concentration in supernatant (S. lividans pCAO200; 2 h) was 22 µM. For the same molecule, the concentration in supernatant (S. lividans pCAO200; 4 h) was 26 µM and the concentration in supernatant (S. lividans pCAO200; 6 h) was 30 µM.

With `CN(C)c1nc(=O)n(C2CCCCC2)c(=O)n1C` [compound 10017, 3-cyclohexyl-1-methyl-6-dimethylamino-S-triazine-2,4(1H,3H)dione] the “Percent Conversion” value (S. lividans C37) was 19%, the “Percent Conversion” value [4] was 47% and the “metabolism by bacteria containing constitutively expressed P450SU1” value (“metabolism … expressed P450SU1” below) [4] was “metabolized”. The “Percent Conversion” value [5] was 35%, the “Percent Conversion” value (S. griseolus ATCC 11796) was 1% and the “Percent Conversion” value [6] was 98%. For the same molecule, the “metabolism by bacteria containing constitutively expressed P450SU2” value (from here on “metabolism … expressed P450SU2”) [6] was “metabolized” and the “Percent Conversion” value [7] was 6%.

`CSc1nnc(C(C)(C)C)c(=O)n1N` [compound 10018, 4-amino-6-tert-butyl-3-(methylthio)-AS-triazin-5(4H)-one] was tested, and the “Percent Conversion” value (S. lividans C37) was 0%, the “Percent Conversion” value [4] was 56% and the “metabolism … expressed P450SU1” value [4] was “metabolized”. The “Percent Conversion” value [6] was 72%, the “metabolism … expressed P450SU2” value [6] was “metabolized” and the “Percent Conversion” value [7] was 10%.

With `Cc1ccc(NC(=O)N(C)C)cc1Cl` [compound 10019, 3-(3-chloro-p-tolyl)-1,1-dimethylurea] the “Percent Conversion” value (S. lividans C37) was 0%, the “Percent Conversion” value [4] was 35% and the “metabolism … expressed P450SU1” value [4] was “metabolized”. The “Percent Conversion” value [5] was 80%, the “Percent Conversion” value (S. griseolus ATCC 11796) was 0% and the “Percent Conversion” value [6] was 9%. For the same molecule, the “Percent Conversion” value [7] was 0%.

In the case of `CCNc1nc(Cl)nc(NC(C)(C)C#N)n1` [compound 10021, 2-[4-chloro-6-(ethylamino-1,3,5-triazin-2-yl)amino]-2-methylpropanenitrile], the “Percent Conversion” value (S. lividans C37) is reported as 0%, the “Percent Conversion” value [4] is reported as 23% and the “Percent Conversion” value [6] is reported as 93%. The “metabolism … expressed P450SU2” value [6] was “metabolized” and the “Percent Conversion” value [7] was 7%.

With `N#Cc1cc(Br)c(O)c(Br)c1` [compound 10023, 3,5-dibromo-4-hydroxybenzonitrile] the “Percent Conversion” value (S. lividans C37) was 0%, the “Percent Conversion” value [4] was 0% and the “Percent Conversion” value [5] was 0%. The “Percent Conversion” value (S. griseolus ATCC 11796) was 0%.

With `C=CCN1Cc2cccc(S(=O)(=O)NC(=O)Nc3nc(OC)cc(OC)n3)c2S1(=O)=O` [compound 10028, N-[(4,6-dimethoxypyrimidin-2-yl)aminocarbonyl]-2,3-dihydro-2-(2-propenyl)-1,2-benzisothiazole-7-sulfonamide-1,1-dioxide] the “metabolism by P450SU1 to phytotoxic 10014” value (S. griseolus ATCC11796) was “metabolized”.

`COc1cc(OC)nc(NC(=O)NS(=O)(=O)c2cccc3c2S(=O)(=O)N(C[Si](C)(C)C)C3)n1` [compound 10032, N-[(4,6-dimethoxypyrimidin-2-yl)aminocarbonyl]-2,3-dihydro-2-(trimethylsilylmethyl)-1,2-benzisothiazole-7-sulfonamide-1,1-dioxide] was tested, and the “% Conversion to 10014” value (S. griseolus ATCC11796; 3.0 mg sulfonylurea in 25 ml broth, 4 days) was 0%.

With “spinach Fd: spinach ferredoxin (an FeS protein)” the “Rate of 10015 metabolism to 10014” value [8] was 0.4 (nmol 10014)·(nmol p450)-1·(mi, the “Rate of 10015 metabolism to 10014” value ([8]; 4 mM FeS addition, FNR 0.2 mM) was 0.2 (nmol 10014)·(nmol p450)-1·(mi and the “Rate of 10015 metabolism to 10014” value ([8]; 4 mM FeS addition, FNR 2.0 mM) was 0.2 (nmol 10014)·(nmol p450)-1·(mi.
